Compound in assay [1]: Cn1cc(C2=Nc3cc(NC(=O)C(N)C4CCCCC4)cc4c3C2=CNNC4=O)cn1
As to the kind of experiment: surviving fraction relative to DMSO-only wells; higher = less growth inhibition. The following applies: exposure time: 5 days. The method, boiled down: (§1)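 Tumour cell lines in log phase were plated in 384-well plates at 250–500 cells per well, then, after 24 hours, exposed continuously for five days to inhibitors at 0.5, 1, 5, 10, 50, 100, 500 and 1000 nM. Viability came from CellTiter-Glo luminescence, and surviving fraction is that signal normalised to the median of DMSO-only wells. Plates were read after 10 minutes at room temperature, and each line, screened three times, was kept only when replicate Pearson r was >0.7 and median Z' was >0.3.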

Compound in the next assay: Nc1nc2[nH]cnc2c(=S)[nH]1 [TIOGUANINE]
The description is as above. The note with it: exposure time: 5 days. The method, boiled down: as §1

± gives the standard deviation of the averaged measurements.

Regarding MG63 BONE, the surviving fraction in assay [1] (0.5 nM) worked out at 0.99 ± 0.033; in assay [1] (1 nM), 1.02 ± 0.021; in assay [1] (5 nM), 1.03 ± 0.024; in assay [1] (10 nM), 1.05 ± 0.047; in assay [1] (50 nM), 1.02 ± 0.058; in assay [1] (100 nM), 0.822 ± 0.0046. In addition, the surviving fraction in assay [1] (500 nM) is 0.0643 ± 0.0084; in assay [1] (1000 nM), 0.101 ± 0.011; with TIOGUANINE (0.5 nM) it was 0.974 ± 0.035; in the assay with TIOGUANINE (1 nM) it was 0.97 ± 0.015; with TIOGUANINE (5 nM), 1.01 ± 0.014; with TIOGUANINE (10 nM), 0.991 ± 0.007. Also, the surviving fraction with TIOGUANINE (50 nM) was 1.02 ± 0.026; with TIOGUANINE (100 nM) it was 1.03 ± 0.026; in the assay with TIOGUANINE (500 nM), 0.989 ± 0.0069; with TIOGUANINE (1000 nM), 0.958 ± 0.03.

Consider MHM BONE, for which the surviving fraction in assay [1] (0.5 nM) came to 0.998 ± 0.018; in assay [1] (1 nM), 1.01 ± 0.032; in assay [1] (5 nM) it was 1.051 ± 0.01; in assay [1] (10 nM), 1.031 ± 0.002; in assay [1] (50 nM) it was 1.12 ± 0.021; in assay [1] (100 nM), 1.15 ± 0.034. Also, the surviving fraction in assay [1] (500 nM) is 0.394 ± 0.034; in assay [1] (1000 nM), 0.183 ± 0.02; with TIOGUANINE (0.5 nM), 0.987 ± 0.028; with TIOGUANINE (1 nM), 0.9777 ± 0.0058; in the assay with TIOGUANINE (5 nM), 1.01 ± 0.024; with TIOGUANINE (10 nM), 0.986 ± 0.011. Moreover, the surviving fraction stood at 1.026 ± 0.0069 with TIOGUANINE (50 nM), 1.039 ± 0.0067 with TIOGUANINE (100 nM), 0.983 ± 0.028 with TIOGUANINE (500 nM) and 0.999 ± 0.018 with TIOGUANINE (1000 nM).

Turning to NCIH441 LUNG, the surviving fraction was determined as 0.975 ± 0.037 in assay [1] (0.5 nM); 1.01 ± 0.018 in assay [1] (1 nM); 1.01 ± 0.05 in assay [1] (5 nM); 1.06 ± 0.084 in assay [1] (10 nM); 1.04 ± 0.024 in assay [1] (50 nM); 0.895 ± 0.078 in assay [1] (100 nM). Moreover, the surviving fraction in assay [1] (500 nM) was found to be 0.401 ± 0.031; in assay [1] (1000 nM), 0.319 ± 0.0068; with TIOGUANINE (0.5 nM), 0.963 ± 0.053; with TIOGUANINE (1 nM), 1.03 ± 0.082; with TIOGUANINE (5 nM), 0.971 ± 0.032; with TIOGUANINE (10 nM) it was 0.955 ± 0.079. Also, the surviving fraction with TIOGUANINE (50 nM) came out at 1.03 ± 0.024; with TIOGUANINE (100 nM), 1.02 ± 0.017; with TIOGUANINE (500 nM) it was 1.01 ± 0.091; with TIOGUANINE (1000 nM) it was 0.976 ± 0.058.

Turning to NOS1 BONE, the surviving fraction is 1 ± 0.16 in assay [1] (0.5 nM); 0.948 ± 0.081 in assay [1] (1 nM); 1.11 ± 0.1 in assay [1] (5 nM); 1.05 ± 0.1 in assay [1] (10 nM); 0.813 ± 0.075 in assay [1] (50 nM); 0.872 ± 0.064 in assay [1] (100 nM). Also, the surviving fraction in assay [1] (500 nM) stood at 0.339 ± 0.009; in assay [1] (1000 nM), 0.195 ± 0.013; with TIOGUANINE (0.5 nM), 1.12 ± 0.037; with TIOGUANINE (1 nM), 1.14 ± 0.028; in the assay with TIOGUANINE (5 nM) it was 1.15 ± 0.093; in the assay with TIOGUANINE (10 nM), 1.17 ± 0.075. Besides, the surviving fraction with TIOGUANINE (50 nM) is 1.23 ± 0.1; with TIOGUANINE (100 nM) it was 1.19 ± 0.058; with TIOGUANINE (500 nM), 1.06 ± 0.099; with TIOGUANINE (1000 nM) it was 1.05 ± 0.065.

Take NY BONE: the surviving fraction is 1 ± 0.015 in assay [1] (0.5 nM); 0.984 ± 0.0061 in assay [1] (1 nM); 1.03 ± 0.024 in assay [1] (5 nM); 0.95 ± 0.042 in assay [1] (10 nM); 0.458 ± 0.014 in assay [1] (50 nM); 0.182 ± 0.014 in assay [1] (100 nM). The surviving fraction turned out to be 0.0577 ± 0.0055 in assay [1] (500 nM); 0.0377 ± 0.0055 in assay [1] (1000 nM); 0.936 ± 0.013 in the assay with TIOGUANINE (0.5 nM); 0.955 ± 0.017 with TIOGUANINE (1 nM); 1.01 ± 0.022 with TIOGUANINE (5 nM); 0.972 ± 0.015 with TIOGUANINE (10 nM). The surviving fraction with TIOGUANINE (50 nM) came to 1.02 ± 0.049; with TIOGUANINE (100 nM) it was 1.01 ± 0.029; with TIOGUANINE (500 nM) it was 0.946 ± 0.025; with TIOGUANINE (1000 nM), 0.902 ± 0.039.

In the case of OS25HAL BONE, the surviving fraction in assay [1] (0.5 nM) stood at 1.014 ± 0.01; in assay [1] (1 nM) it was 1.03 ± 0.042; in assay [1] (5 nM), 1.005 ± 0.0044; in assay [1] (10 nM), 1.012 ± 0.0078; in assay [1] (50 nM) it was 0.978 ± 0.045; in assay [1] (100 nM) it was 0.984 ± 0.012. Moreover, the surviving fraction was determined as 0.0757 ± 0.017 in assay [1] (500 nM); 0.0387 ± 0.0011 in assay [1] (1000 nM); 0.943 ± 0.015 with TIOGUANINE (0.5 nM); 0.951 ± 0.017 with TIOGUANINE (1 nM); 0.967 ± 0.0017 in the assay with TIOGUANINE (5 nM); 0.933 ± 0.027 in the assay with TIOGUANINE (10 nM). Further, the surviving fraction with TIOGUANINE (50 nM) came to 1 ± 0.024; with TIOGUANINE (100 nM), 1.01 ± 0.033; with TIOGUANINE (500 nM), 1.002 ± 0.0066; in the assay with TIOGUANINE (1000 nM), 0.955 ± 0.032.

Turning to OSHN BONE, the surviving fraction was found to be 1.05 ± 0.044 in assay [1] (0.5 nM); 1.077 ± 0.001 in assay [1] (1 nM); 1.05 ± 0.018 in assay [1] (5 nM); 1.062 ± 0.0075 in assay [1] (10 nM); 0.959 ± 0.021 in assay [1] (50 nM); 0.924 ± 0.017 in assay [1] (100 nM). Also, the surviving fraction in assay [1] (500 nM) was determined as 0.0477 ± 0.0023; in assay [1] (1000 nM), 0.0277 ± 0.00058; with TIOGUANINE (0.5 nM), 1.01 ± 0.037; with TIOGUANINE (1 nM), 1.02 ± 0.026; with TIOGUANINE (5 nM), 1.01 ± 0.035; in the assay with TIOGUANINE (10 nM), 1.02 ± 0.034. The surviving fraction amounted to 1.02 ± 0.048 in the assay with TIOGUANINE (50 nM), 1.04 ± 0.038 with TIOGUANINE (100 nM), 1.01 ± 0.039 with TIOGUANINE (500 nM) and 0.9787 ± 0.007 in the assay with TIOGUANINE (1000 nM).

As to PCI30 HEADNECK, the surviving fraction in assay [1] (0.5 nM) worked out at 0.977 ± 0.021; in assay [1] (1 nM), 0.929 ± 0.027; in assay [1] (5 nM) it was 0.994 ± 0.051; in assay [1] (10 nM), 0.945 ± 0.014; in assay [1] (50 nM) it was 0.913 ± 0.029; in assay [1] (100 nM) it was 0.668 ± 0.039. The surviving fraction was 0.365 ± 0.025 in assay [1] (500 nM); 0.333 ± 0.012 in assay [1] (1000 nM); 0.892 ± 0.097 with TIOGUANINE (0.5 nM); 0.847 ± 0.013 with TIOGUANINE (1 nM); 0.978 ± 0.097 with TIOGUANINE (5 nM); 1.02 ± 0.047 in the assay with TIOGUANINE (10 nM). The surviving fraction worked out at 1.02 ± 0.063 with TIOGUANINE (50 nM), 1.03 ± 0.016 with TIOGUANINE (100 nM), 0.918 ± 0.045 in the assay with TIOGUANINE (500 nM) and 0.88 ± 0.072 with TIOGUANINE (1000 nM).

With SAOS2 BONE, the surviving fraction in assay [1] (0.5 nM) is 1.1493 ± 0.00058; in assay [1] (1 nM), 1.08 ± 0.049; in assay [1] (5 nM), 1.073 ± 0.0011; in assay [1] (10 nM) it was 1.17 ± 0.077; in assay [1] (50 nM) it was 0.882 ± 0.065; in assay [1] (100 nM), 0.728 ± 0.03. In addition, the surviving fraction in assay [1] (500 nM) came to 0.113 ± 0.017; in assay [1] (1000 nM), 0.0473 ± 0.0046; in the assay with TIOGUANINE (0.5 nM), 1 ± 0.024; with TIOGUANINE (1 nM), 0.966 ± 0.031; with TIOGUANINE (5 nM), 1.034 ± 0.0081; in the assay with TIOGUANINE (10 nM) it was 0.937 ± 0.096. Besides, the surviving fraction is 1.15 ± 0.014 with TIOGUANINE (50 nM), 1.15 ± 0.097 in the assay with TIOGUANINE (100 nM), 1.02 ± 0.027 with TIOGUANINE (500 nM) and 1.01 ± 0.047 in the assay with TIOGUANINE (1000 nM).

For the origin of these results see the supplement of paper PMC6045584.
